According to patent US20220323454A1, “PHENOTHIAZINES AND THEIR DERIVATIVES FOR USE AS A MEDICAMENT” (Guangzhou Virotech Pharmaceutical Co., Ltd., priority 2019, published 2022):

Tests used:
B16-OVA cells = assay: CTL killing of IFN-γ-treated B16-OVA melanoma cells (microscope); assay type: cell-based, mouse
Protocol: (3) Melanoma cells B16-OVA (B16 cells expressing OVA gene) were treated with 10 μg/mL IFN-γ for 24 hours, and then mixed with CTL cells at a ratio of 1:5 and co-cultured for 4 hours. Cells were treated with 1 μM MTC. B16-OVA cells treated with DMSO or MTC only (without IFN-γ treatment) were used as control. The apoptosis of B16-OVA was observed by microscope, and then the killing ability of CTL cells to target cells was assessed.
(§1) (4) The B16-OVA group received no treatment, and the medium was replaced with water in the Water group. The other groups were treated with 10 μg/mL IFNγ. After 24 hours, except for the B16-OVA group, each group was co-cultured with CTL cells at a ratio of 1:5 for 4 hours, and treated with MTC […], LMT (1 μM) or anti-PD1 (PD-1 antibody, 10 μg/mL, Nivolumab, BMS). The death of B16-OVA in each group was observed by microscope, and then the killing ability of CTL cells to target cells was assessed. […] The IFN-γ+MTC group and the IFN-γ+LMT group were treated with 10 μg/mL IFN-γ for 24 hours. The cells were then mixed with CTL cells at a ratio of 1:5, co-cultured for 4 hours and treated with MTC (1 μM) or LMT (1 μM). The MTC and LMT groups were treated with MTC (10 μM) or LMT (10 μM) only. The killing ability against target cells was observed.

PD-1 recruitment of SHP2 [1] = molecular target: T1, PD-1 recruitment of SHP2 (Homo sapiens, UniProt Q06124+Q15116); assay: Split-luciferase PD-1-Cluc / Nluc-SHP2 interaction in 293T cells; assay type: cell-based; conditions: 293T stable cell line, different concentrations of MTC, 6 hours; FIG. 7A
T1 construct: expressed in transfected cells
Text: This example preliminarily explored the mechanism by which MTC inhibits PD-1 signaling, and assessed the ability of MTC to affect PD-1 recruitment of SHP2. The binding of PD-1 to ligands can recruit SHP2 protein to the surrounding T cell receptors, thereby inhibiting the activation of T cell receptor proximal kinases, reducing Lck-mediated phosphorylation of ZAP-70 protein and the initiation of downstream signaling pathways. Luciferase can be split into two fragments, N-terminal and C-terminal. When the two fragments are fused with other proteins, the activity of luciferase can be detected if the N-terminal and C-terminal luciferase fragments are close due to the interaction of their fusion proteins. Therefore, the strength of the interaction of the fused proteins can indirectly detected by measuring the activity of luciferase.
(1) Fusion genes PD-1-Cluc and Nluc-SHP2 were transfected into 293T cells with liposomes to construct a stable cell line. The cells were added with different concentrations of MTC and cultured for 6 hours to observe the effect of MTC on the reading of luciferase.

OT-1 CTL cells = assay: Secretion of CTL effector molecules on co-culture with EG7-PD-L1 target cells (flow cytometry); assay type: cell-based, mouse; conditions: CTL : EG7-PD-L1 1:1, GolgiPlug 6 hours; FIG. 3
Protocol: (1) Preparation of CTL cells: The spleens of OT1 mice were obtained, ground and added with red blood cell lysate, to prepare single-cell suspension. The culture medium was 1640+10% FBS+50 μM βME+10 nM IL-2. Cell density was adjusted to about 2-4 million/mL. The cells were added with 10 nM OVA257-264, and cultured in a cell incubator at 37° C., 5% CO2. From the day of CTL preparation, cells were stained with FITC-labeled PD-1 antibody every day, and the changes of PD-1 expression on the cell surfaces were detected by flow cytometry.
(3) CTL cells and target cells EG7 (EL4 lymphoma cells expressing chicken ovalbumin) were mixed and cultured at a concentration of 1:1. The cell mixture was treated with 1 μM protein transport inhibitor GolgiPlug™ for 6 hours, and then fixed by 4% paraformaldehyde. The cells were then treated with 0.1% saponin, and stained with antibodies against each effector molecule. The effect of MTC on the secretion of CTL effector molecules was detected by flow cytometry.

PD-1 recruitment of SHP2 [2] = molecular target: T1, PD-1 recruitment of SHP2; assay: Confocal localization of PD-1-GFP and SHP2-mCherry in 293T cells; assay type: cell-based; conditions: 293T stable cell line, MTC 6 hours, then 1 μM PVD 5 minutes
Protocol: (2) Fusion genes PD-1-GFP and SHP2-mCherry were transfected into 293T cells with liposomes to construct a stable cell line. The cells were added with MTC at different concentrations, cultured for 6 hours, and then treated with 1 μM PVD (a dephosphorylase inhibitor) for 5 minutes. Cells were fixed with 4% paraformaldehyde and the effect of MTC on the localization of GFP and mCherry, namely PD-1 and SHP2, was observed under Confocal.

[3] = tested on: EGFR-L858R mutant orthotopic tumors; assay: EGFR-L858R transgenic mouse orthotopic lung cancer model (CT); assay type: in vivo; conditions: FIG. 6B
Text: The advantages of xenograft models are that the antigenic epitopes recognized by T cells are very clear, and the system is pure for elucidation. The disadvantage is that this model cannot simulate the complex carcinogenesis, tumorigenesis, and interactions of tumor and stromal cells of the primary cancer. Therefore, murine xenograft models are less predictive of drug effects in human patients. Therefore, in this example, the effect of the MTC of the present invention in treating tumors was further investigated by using a transgenic lung cancer mouse model. […] One to two months later, lung cancer in mice could be detected and recorded by computed tomography (CT). […]
(2) The size and severity of the tumors was recorded by computed tomography (CT).
(3) The tumor-bearing mice were randomly divided into groups and given placebo (HKI solution) and MTC (40 mg/kg/day in HKI solution). After 2 weeks of treatment, tumor sizes were recorded by CT again.
Mice were intraperitoneally injected with CD8 antibody […] one week in advance to deplete CD8+ cells in the tumor-bearing mice. The mice were then co-treated with MTC and CD8 antibody for 2 weeks, and the tumor size was recorded by CT.

B16-WT cells = assay: Killing of B16-WT melanoma cells, with or without CTL cells; assay type: cell-based, mouse; conditions: FIG. 4E
Protocol: as §1

T1 sequence (Q15116 25-288): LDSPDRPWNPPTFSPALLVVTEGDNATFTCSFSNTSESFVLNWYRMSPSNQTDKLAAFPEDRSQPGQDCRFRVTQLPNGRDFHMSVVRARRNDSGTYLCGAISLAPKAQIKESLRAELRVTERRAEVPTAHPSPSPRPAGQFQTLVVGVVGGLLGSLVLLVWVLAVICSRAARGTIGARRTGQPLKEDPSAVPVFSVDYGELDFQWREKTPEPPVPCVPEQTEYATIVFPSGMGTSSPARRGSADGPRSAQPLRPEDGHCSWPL
T1 sequence (Q06124 whole entry): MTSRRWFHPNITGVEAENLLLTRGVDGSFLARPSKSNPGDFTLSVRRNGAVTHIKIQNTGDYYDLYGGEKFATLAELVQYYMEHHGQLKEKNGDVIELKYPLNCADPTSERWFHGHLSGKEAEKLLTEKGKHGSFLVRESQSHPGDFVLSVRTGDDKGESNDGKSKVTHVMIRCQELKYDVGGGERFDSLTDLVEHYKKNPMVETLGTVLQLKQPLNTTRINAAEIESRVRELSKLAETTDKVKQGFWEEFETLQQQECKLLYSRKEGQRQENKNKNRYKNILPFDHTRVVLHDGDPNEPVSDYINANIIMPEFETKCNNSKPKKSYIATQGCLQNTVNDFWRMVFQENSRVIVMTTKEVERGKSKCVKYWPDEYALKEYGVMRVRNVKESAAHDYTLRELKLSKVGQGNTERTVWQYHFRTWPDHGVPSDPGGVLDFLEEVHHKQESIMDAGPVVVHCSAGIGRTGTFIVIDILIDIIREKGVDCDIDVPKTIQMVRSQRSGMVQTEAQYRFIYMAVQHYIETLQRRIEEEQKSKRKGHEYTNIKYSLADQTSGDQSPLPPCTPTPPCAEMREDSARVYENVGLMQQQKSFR

CN(C)c1ccc2nc3ccc(N(C)C)cc3[s+]c2c1 [MTC, 3,7-bis(dimethylamino)-phenothiazine-5-ium chloride]
killing effects of CTL cells to B16-OVA cells (B16-OVA cells; B16-OVA treated with 10 μg/mL IFNγ 24 hours, B16-OVA : CTL 1:5, 4 hours, MTC (1 µM), LMT (1 μM), FIGS. 4C and 4D): significantly enhanced
combined killing effect with CTL cells on B16-OVA compared with the anti-PD-1 group (B16-OVA cells; MTC (1 µM) or LMT (1 μM) vs anti-PD1 10 μg/mL, FIG. 4D): significantly stronger than that of the anti-PD-1 group
readings of luciferase (PD-1-Cluc / Nluc-SHP2 interaction) (PD-1 recruitment of SHP2 [1]): reduce the readings of luciferase
secretion of Granzyme B in CTL cells (OT-1 CTL cells): increased sharply
secretion of IFNγ in CTL cells (OT-1 CTL cells): increased sharply
secretion of IL-2 in CTL cells (OT-1 CTL cells): increased sharply
secretion of perforin in CTL cells (OT-1 CTL cells): increased sharply
localization of SHP2-mCherry relative to PD-1-GFP (PD-1 recruitment of SHP2 [2]): dissociation of mCherry from the membrane
tumor growth in the case of CD8+ T cell depletion ([3]; CD8 antibody one week in advance, then MTC and CD8 antibody for 2 weeks): not inhibited
tumors by CT imaging ([3]; MTC 40 mg/kg/day in HKI solution, 14 days): basically cleared
killing effect on B16-WT cells, combination with CTL cells (B16-WT cells; IFN-γ 10 μg/mL 24 hours, B16-WT : CTL 1:5, 4 hours, MTC (1 μM) or LMT (1 μM)): no killing effect
killing effect on B16-WT cells, compound only (B16-WT cells; MTC (10 μM) or LMT (10 μM) only): no killing effect
